Where “and” joins values, the source holds several entries; their conditions need not be identical. Equal values may be shown once. Read-outs that look alike come from different tables or passages of the source.
Experiments:
rhIDO1 (holo-IDO1) = molecular target: T1, rhIDO1 (holo-IDO1) (Homo sapiens, UniProt P14902); assay: nanoDSF thermal denaturation of IDO1; format: binding
T1 construct: His; made in house; host or cells: E. coli
Protocol: 11 µM rhIDO1 was incubated with compounds at indicated concentrations for 60 min at 37°C in 50 mM potassium phosphate buffer (16.9 mM K2HPO4, 33.1 mM, KH2PO4, pH 6.5). The thermal protein stability from 20°C to 90°C (1°C/min) was measured by means of the intrinsic tryptophan/tyrosine fluorescence using the Prometheus™ NT.48 (NanoTemper® Technologies, DE). Melting scans, first derivatives of melting scans and melting temperatures were analyzed using PR.ThermControl software (NanoTemper® Technologies, DE). Binding affinities were determined by plotting the melting temperature against the ligand concentration and fitting with a single site ligand binding function using GraphPad Prism 9.0 (GraphPad Software, Inc, US). The isothermal analysis of the nanoDSF data was performed with FoldAffinity[1] with an assumed heat capacity change ΔCp of zero. […]

IDO1 protein levels = IDO1 protein levels (immunoblotting, In-Cell Western); format: cell-based; conditions: immunoblotting (HeLa, IFN-γ, 24 h) and in-Cell western
Protocol: Kit (QIAGEN, DE) following the manufacturer’s procedure. DNA was removed on column by […]
DNase digestion with RNase-free DNase Set (QIAGEN, DE) according to the manufacturer’s […]
instructions. Following the manufacturer’s protocol, cDNA templates were synthesized from […]
800 ng total RNA using the QuantiTect Reverse Transcription Kit (QIAGEN, DE).
The expression levels of the IDO1 gene and the reference GAPDH were assessed by real-time […]
quantitative PCR (qPCR). Therefore, 120 ng cDNA was amplified using 500 nM of gene-specific […]
primers and SsoAdvanced Universal SYBR Green Supermix (Bio-Rad Laboratories, DE) in a total […]
volume of 10 µL for 50 cycles using the CFX96 Touch™ Real-Time PCR Detection System (Bio- […]
Rad Laboratories, DE). Relative IDO1 expression levels were calculated using the ΔΔCt method […]
with GAPDH as reference gene[17] and represented using GraphPad Prism 9.0 (GraphPad […]
and homogenized by sonication. Protein concentration was determined using the DC Protein […]
11 µM rhIDO1 was incubated with compounds at indicated concentrations for 60 min at 37°C in 50 mM potassium phosphate buffer (16.9 mM K2HPO4, 33.1 mM, KH2PO4, pH 6.5). The thermal protein stability from 20°C to 90°C (1°C/min) was measured by means of the intrinsic tryptophan/tyrosine fluorescence using the Prometheus™ NT.48 (NanoTemper® Technologies, […]

[1] = Ligand integrity in the crystallization drop (HPLC-ESI-MS); format: physicochemical; conditions: 63 days after the crystallization setup
Protocol: for 10 min. Protein crystals were obtained from a sitting drop setup (iQ plates, SPT Labtech, UK) by addition of 100 nL of the reservoir solution (40% (v/v) PEG200 in 100 mM MES, pH 6.5) to 100 nL of protein solution and incubation at 20°C. Crystals were harvested after 7 days by addition of reservoir solution as cryoprotectant to the drop prior to plunging of the crystals in liquid nitrogen. […]
The integrity of apoxidole-1 in the protein solution was assessed 63 days after the crystallization setup by mixing the crystallization drop with 100 µL of DCM and recording of HPLC-ESI-MS spectra using the LTQ Fleet (Thermo Fisher Scientific, US), Ultimate 3000 HPLC (Thermo Fisher Scientific, US) and Xcalibur™ software (Thermo Fish er Scientific, US). […]
(v/v) component 2 in component 1) and 50 µM Test Inhibitor (0.5% (v/v) DMSO) for 90 min at 30°C with slow shaking in the dark prior to initiation of the reaction by addition of 20% (v/v) IDO2 Substrate. Samples were incubated for 120 min at 30°C with slow shaking in the dark. […]

T1 sequence (P14902 whole entry): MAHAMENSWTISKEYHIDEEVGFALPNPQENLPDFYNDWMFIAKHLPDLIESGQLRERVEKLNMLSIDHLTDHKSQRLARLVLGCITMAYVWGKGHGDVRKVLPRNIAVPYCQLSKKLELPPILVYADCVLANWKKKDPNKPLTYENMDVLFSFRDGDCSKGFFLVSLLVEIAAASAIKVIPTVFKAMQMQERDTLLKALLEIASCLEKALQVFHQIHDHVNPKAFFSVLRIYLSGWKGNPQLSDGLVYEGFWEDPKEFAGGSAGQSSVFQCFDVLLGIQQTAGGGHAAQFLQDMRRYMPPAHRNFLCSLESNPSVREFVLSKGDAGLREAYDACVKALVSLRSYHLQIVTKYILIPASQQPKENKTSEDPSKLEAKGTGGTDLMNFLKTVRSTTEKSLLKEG

Kd (rhIDO1 (holo-IDO1); 48 °C, FoldAffinity, first replicate, read-out: KD, 48°C (isothermal analysis, single replicate)): 11.6 nM
Kd (rhIDO1 (holo-IDO1); 49 °C, FoldAffinity, read-out: KD, 49°C (isothermal analysis, single replicates)): 24.7 nM and 26 nM
Kd (rhIDO1 (holo-IDO1); 50 °C, FoldAffinity, read-out: KD, 50°C (isothermal analysis, single replicates)): 48.4 nM and 34.7 nM and 24.8 nM
Kd (rhIDO1 (holo-IDO1); 51 °C, FoldAffinity, read-out: KD, 51°C (isothermal analysis, single replicates)): 54.4 nM and 41.3 nM and 33.6 nM
Kd (rhIDO1 (holo-IDO1); at 49 °C, read-out: KD (isothermal analysis of nanoDSF data)): 20.7 ± 0.01 nM
Kd (rhIDO1 (holo-IDO1); from Tm vs concentration, mean±SD, n=3, read-out: apparent dissociation constant KD,app): 1100 nM and 1090 nM
shift of melting temperature Tm (nanoDSF) (rhIDO1 (holo-IDO1); holo-IDO1, 60 min at 37 °C): 7.7±0.3 °C
melting temperature Tm of IDO1 with compound (rhIDO1 (holo-IDO1); holo-IDO1 treated with compound, DMSO 45.7±0.2 °C): 53.5±0.2 °C
ligand integrity after crystallization setup [1]: still intact
SMILES: CCOC(=O)C1=CC[C@](C(=O)OC)(c2cc3ccccc3n2C)N(S(=O)(=O)c2ccc(C)cc2)[C@@H]1C(=O)OC(C)(C)C [Compound 3d]
level of the IDO1 protein (IDO1 protein levels): did not alter the level of the IDO1 protein

Source: publication PMC9804781, “Identification of a Novel Pseudo‐Natural Product Type IV IDO1 Inhibitor Chemotype” (Angewandte Chemie (International Ed. in English), 2022)
